Values of other authors as cited in patent publication US7351724B2, “Oxadiazole ketone inhibitors of fatty acid amide hydrolase” (The Scripps Research Institute, priority 2004, dated 2008).

Assays:
CREAE mice = details: Baker 2001; cited from earlier work
rats [1] = details: Kathuria 2003; cited from earlier work
rats [2] = details: rat; Kathuria 2003; cited from earlier work
rats [3] = details: cited from earlier work

Row | SMILES | spasticity (CREAE mice) | efficacy in zero plus maze model of anxiety (rats [1]) | analgesic efficacy in formalin test (rats [2]) | analgesic efficacy/activity in hot plate test (rats [3])
1 | CCCCCCCCCCCCCCCCS(=O)(=O)F [AM374] | significantly reduce spasticity | – | – | –
2 | NC(=O)c1cccc(-c2cccc(OC(=O)NC3CCCCC3)c2)c1 [URB-597] | – | efficacy | analgesic efficacy | analgesic efficacy
